This assay concerns the target CDK2 (human) (UniProt P24941). Nature of the assay: Enzyme Assay.

What is called IC50 is the concentration needed to halve the response being measured. With `Cc1c(N[C@H]2CC[C@H](N)CC2)nc2ccnn2c1Nc1ccc(-c2cccc(C#N)c2)cc1`, the IC50 is less than 100 µM.

In turn, `CCOc1ccc(Nc2c(C)c(NC3CCCNC3)nc3c(CC)cnn23)cc1` (stereo not given) displayed an IC50 of less than 100 µM.

`Cc1c(N[C@H]2CC[C@H](N)CC2)nc2ccnn2c1Nc1ccc(OC2CCN(C)CC2)cc1` showed an IC50 of less than 100 µM.

For the compound `Cc1c(N[C@H]2CC[C@H](N)CC2)nc2c(C#N)cnn2c1Nc1ccc(F)c(Cl)c1`, the IC50 is less than 100 µM.

Take `Cc1c(N[C@H]2CC[C@H](N)CC2)nc2ccnn2c1Nc1ccccc1Cl`: the IC50 was less than 100 µM.

Consider `CCc1c(N[C@H]2CC[C@H](N)CC2)nc2ccnn2c1Nc1ccc(OC(F)(F)F)cc1`, for which the IC50 was less than 100 µM.

`CCOc1ccc(Nc2c(C)c(NC3CCCNC3)nc3c(C4CCCCC4)cnn23)cc1` (stereo not given) registered an IC50 of less than 100 µM.

On to `COc1cccc(Nc2c(C)c(N[C@H]3CC[C@H](N)CC3)nc3ccnn23)c1`, for which the IC50 was less than 100 µM.

With `Cc1c(N[C@H]2CC[C@H](N)CC2)nc2ccnn2c1Nc1ccc(C(=O)c2ccccc2)cc1`, the IC50 was less than 100 µM.

As for `Cc1c(N[C@H]2CC[C@H](N)CC2)nc2ccnn2c1Nc1cccc(CO)c1`, the IC50 was less than 100 µM.

`Cc1c(N[C@H]2CC[C@H](N)CC2)nc2ccnn2c1Nc1ccc2cc[nH]c2c1` returned an IC50 of less than 100 µM.

In the case of `CNC(=O)c1ccc(Nc2c(C)c(N[C@H]3CC[C@H](N)CC3)nc3ccnn23)cc1`, the IC50 is less than 100 µM.

For `CCCc1c(N[C@H]2CC[C@H](N)CC2)nc2ccnn2c1Nc1ccc(F)c(Cl)c1`, the half-maximal inhibitory concentration (IC50) is less than 100 µM.

`CCOc1ccc(Nc2c(C)c(N[C@@H]3CCN(Cc4ccccc4)C3)nc3ccnn23)cc1` showed a concentration for half-maximal inhibition (IC50) of less than 100 µM.

As to `Cc1c(NC2CCCNC2)nc2ccnn2c1Nc1ccc(-c2cccc(CO)c2)cc1` (stereo not given), the IC50 is less than 100 µM.

For the compound `Cc1c(N[C@H]2CC[C@H](N)CC2)nc2ccnn2c1Nc1ccc(OCCN2CCCCC2)cc1`, the IC50 was less than 100 µM.

Compound `C=CCNc1c(-c2ccccc2)c(N[C@H]2CC[C@H](N)CC2)nc2ccnn12` came in with an IC50 of less than 100 µM.

Compound `Cc1c(N[C@H]2CC[C@H](N)CC2)nc2ccnn2c1Nc1ccc(OCCN2CCOCC2)cc1` displayed an IC50 of less than 100 µM.

Compound `CCOc1ccc(Nc2c(C(C)C)c(N[C@H]3CC[C@H](N)CC3)nc3ccnn23)cc1` registered a concentration for half-maximal inhibition (IC50) of less than 100 µM.

Compound `Cc1c(N[C@H]2CC[C@H](N)CC2)nc2ccnn2c1Nc1ccc(-c2ccccc2C(F)(F)F)cc1` displayed an IC50 of less than 100 µM.

Compound `CCOc1ccc(Nc2c(C)c(N[C@@H]3CCNC3)nc3ccnn23)cc1` had an IC50 of less than 100 µM.

With `Cc1c(N[C@H]2CC[C@H](N)CC2)nc2ccnn2c1Nc1ccc(I)cc1`, the IC50 was less than 100 µM.

`COc1cccc(COc2cccc(Nc3c(C)c(N[C@H]4CC[C@H](N)CC4)nc4ccnn34)c2)c1` came in with an IC50 of less than 100 µM.

Compound `Cc1c(N[C@H]2CC[C@H](N)CC2)nc2ccnn2c1Nc1ccc(OC2CCCCC2)cc1` registered an IC50 of less than 100 µM.

In turn, `CCc1c(N[C@H]2CC[C@H](N)CC2)nc2ccnn2c1Nc1ccc(OC)cc1` yielded an IC50 of less than 100 µM.

The compound `Cc1c(N[C@H]2CC[C@H](N)CC2)nc2ccnn2c1Nc1ccc(-c2csc3ccccc23)cc1` returned an IC50 of less than 100 µM.

Consider `COc1c(N[C@H]2CC[C@H](N)CC2)nc2ccnn2c1Nc1ccc(F)c(Cl)c1`, for which the IC50 was less than 100 µM.

In turn, `Cc1c(N[C@H]2CC[C@H](N)CC2)nc2ccnn2c1Nc1ccc(OCc2ccc(N)cc2)cc1` showed a half-inhibitory concentration (IC50) of less than 100 µM.

`Cc1c(N[C@H]2CC[C@H](N)CC2)nc2ccnn2c1Nc1ccc(OCc2cccc(Cl)c2)cc1` showed a half-inhibitory concentration (IC50) of less than 100 µM.

The compound `CC(=O)c1ccc(-c2ccc(Nc3c(C)c(N[C@H]4CC[C@H](N)CC4)nc4ccnn34)cc2)s1` came in with a half-maximal inhibitory concentration (IC50) of less than 100 µM.

For `N#Cc1cnn2c(Nc3ccc(F)c(Cl)c3)cc(N[C@H]3CC[C@H](N)CC3)nc12`, the IC50 was less than 100 µM.

`CCOc1ccc(Nc2c(C)c(N[C@H]3CC[C@H](N)CC3)nc3c(NC)cnn23)cc1`: the IC50 is less than 100 µM.

Compound `CCCOc1ccc(Nc2c(C)c(N[C@H]3CC[C@H](N)CC3)nc3ccnn23)cc1` registered an IC50 of less than 100 µM.

For the compound `CCc1c(NC2CCCNC2)nc2c(Cl)cnn2c1Nc1ccc(I)cc1` (stereo not given), the IC50 is less than 100 µM.

Turning to `CCOc1ccc(Nc2c(-c3ccc(OC)cc3)c(N[C@H]3CC[C@H](N)CC3)nc3ccnn23)cc1`, the IC50 was less than 100 µM.

The compound `CCOc1ccc(Nc2c(C)c(N[C@H]3CC[C@H](N)CC3)nc3c(S(C)(=O)=O)cnn23)cc1` displayed an IC50 of less than 100 µM.

Take `Cc1c(N[C@H]2CC[C@H](N)CC2)nc2ccnn2c1Nc1ccc(-c2cc3ccccc3o2)cc1`: the IC50 was less than 100 µM.

As for `Cc1ccccc1-c1ccc(Nc2c(C)c(N[C@H]3CC[C@H](N)CC3)nc3ccnn23)cc1`, the IC50 is less than 100 µM.

`Cc1c(N[C@H]2CC[C@H](N)CC2)nc2ccnn2c1Nc1ccc(-c2ccccc2F)cc1`: the half-maximal inhibitory concentration (IC50) is less than 100 µM.

Take `Cc1cccc(-c2ccc(Nc3c(C)c(N[C@H]4CC[C@H](N)CC4)nc4ccnn34)cc2)c1`: the IC50 is less than 100 µM.

In turn, `Cc1c(N[C@H]2CC[C@H](N)CC2)nc2ccnn2c1Nc1ccc(N(C)C)cc1` displayed an IC50 of less than 100 µM.

Consider `Cc1c(N[C@H]2CC[C@H](N)CC2)nc2ccnn2c1Nc1ccc(-c2ccc(O)cc2)cc1`, for which the IC50 is less than 100 µM.

As to `Cc1c(N[C@H]2CC[C@H](N)CC2)nc2ccnn2c1Nc1ccccc1F`, the IC50 is less than 100 µM.

Turning to `Cc1ccc(Nc2c(C)c(NC3CCCNC3)nc3ccnn23)cc1C` (stereo not given), the IC50 was less than 100 µM.

With `COCCOc1ccc(Nc2c(C)c(N[C@H]3CC[C@H](N)CC3)nc3ccnn23)cc1`, the IC50 is less than 100 µM.

Consider `N#Cc1cnn2c(Nc3ccccc3Cl)cc(N[C@H]3CC[C@H](N)CC3)nc12`, for which the IC50 was less than 100 µM.

`CCc1c(N[C@H]2CC[C@H](N)CC2)nc2ccnn2c1Nc1cccc(C(N)=O)c1` registered an IC50 of less than 100 µM.

`Cc1c(N[C@H]2CC[C@H](N)CC2)nc2ccnn2c1Nc1cccc(OCc2ccc(Cl)cc2)c1` returned an IC50 of less than 100 µM.

`Cc1c(N[C@H]2CC[C@H](N)CC2)nc2ccnn2c1Nc1ccc(OCCCl)cc1` had an IC50 of less than 100 µM.

`CCOc1ccc(Nc2c(C)c(N[C@H]3CC[C@H](N)CC3)nc3c(C(=O)NCCN(C)C)cnn23)cc1`: the half-maximal inhibitory concentration (IC50) was less than 100 µM.

The compound `Cc1c(N[C@H]2CC[C@H](N)CC2)nc2ccnn2c1Nc1ccc(OC2CCOCC2)cc1` came in with an IC50 of less than 100 µM.

The compound `COc1ccc(Nc2c(CCCO)c(N[C@H]3CC[C@H](N)CC3)nc3ccnn23)cc1OC` displayed an IC50 of less than 100 µM.

With `CCOc1ccc(Nc2c(C)c(N[C@H]3CC[C@H](N)CC3)nc3c(C#N)cnn23)cc1`, the IC50 was less than 100 µM.

The compound `Cc1c(N[C@H]2CC[C@H](N)CC2)nc2ccnn2c1Nc1ccc(OC2CCNC2)cc1` (stereo not given in full) displayed an IC50 of less than 100 µM.

`CCOC(=O)c1ccc(Nc2c(CC)c(N[C@H]3CC[C@H](N)CC3)nc3ccnn23)cc1` registered a concentration for half-maximal inhibition (IC50) of less than 100 µM.

`COc1cccc(COc2ccc(Nc3c(C)c(N[C@H]4CC[C@H](N)CC4)nc4ccnn34)cc2)c1`: the IC50 is less than 100 µM.

Take `Cc1c(N[C@H]2CC[C@H](N)CC2)nc2ccnn2c1Nc1ccc(OCCc2ccccn2)cc1`: the IC50 was less than 100 µM.

Regarding `CCCCOc1ccc(Nc2c(CC)c(N[C@H]3CC[C@H](N)CC3)nc3ccnn23)cc1`, the IC50 was less than 100 µM.

As for `Cc1c(N[C@H]2CC[C@H](N)CC2)nc2ccnn2c1Nc1ccc(-c2ccc(OC(F)(F)F)cc2)cc1`, the IC50 is less than 100 µM.

The compound `Cc1c(N[C@H]2CC[C@H](N)CC2)nc2ccnn2c1Nc1ccc(OCCn2ccnc2)cc1` displayed an IC50 of less than 100 µM.

`CCOc1ccc(Nc2c(OC)c(NC3CCCNC3)nc3ccnn23)cc1` (stereo not given) came in with an IC50 of less than 100 µM.

On to `Cc1c(N[C@H]2CC[C@H](N)CC2)nc2ccnn2c1Nc1ccc(-c2cncnc2)cc1`, for which the IC50 was less than 100 µM.

`Cc1ccccc1COc1cccc(Nc2c(C)c(N[C@H]3CC[C@H](N)CC3)nc3ccnn23)c1` returned an IC50 of less than 100 µM.

In the case of `N[C@H]1CC[C@H](Nc2cc(NCc3cccc(Cl)c3)n3ncc(I)c3n2)CC1`, the IC50 is less than 100 µM.

The compound `Cc1c(N[C@H]2CC[C@H](N)CC2)nc2ccnn2c1Nc1ccc(-c2cc3ccccc3[nH]2)cc1` gave an IC50 of less than 100 µM.

With `Cc1c(N[C@H]2CC[C@H](N)CC2)nc2ccnn2c1Nc1ccc2cn[nH]c2c1`, the IC50 was less than 100 µM.

For `Cc1c(N[C@H]2CC[C@H](N)CC2)nc2ccnn2c1Nc1ccc(F)c(Cl)c1`, the IC50 was less than 100 µM.

`Cc1c(N[C@H]2CC[C@H](N)CC2)nc2ccnn2c1Nc1ccc2[nH]ccc2c1` displayed an IC50 of less than 100 µM.

As to `Cc1c(N[C@H]2CC[C@H](N)CC2)nc2ccnn2c1Nc1ccc(C(=O)NCc2cccnc2)cc1`, the IC50 is less than 100 µM.

For `Cc1c(N[C@H]2CC[C@H](N)CC2)nc2ccnn2c1Nc1ccc(-c2ccc(F)cc2)cc1`, the IC50 was less than 100 µM.

`Cc1c(N[C@H]2CC[C@H](N)CC2)nc2ccnn2c1Nc1cccc2[nH]ccc12` gave an IC50 of less than 100 µM.

`CCc1c(N[C@H]2CC[C@H](N)CC2)nc2ccnn2c1Nc1ccccc1Cl`: the IC50 was less than 100 µM.

For `Cc1c(N[C@H]2CC[C@H](N)CC2)nc2ccnn2c1NCC(C)(C)C`, the IC50 was less than 100 µM.

`CCOc1cccc(Nc2c(C)c(N[C@H]3CC[C@H](N)CC3)nc3ccnn23)c1`: the IC50 was less than 100 µM.

Regarding `CCc1c(N[C@H]2CC[C@H](N)CC2)nc2ccnn2c1Nc1cccc(I)c1`, the IC50 was less than 100 µM.

As for `CCc1c(N[C@H]2CC[C@H](N)CC2)nc2ccnn2c1Nc1ccc(Br)cc1`, the IC50 is less than 100 µM.

For the compound `CCc1c(N[C@H]2CC[C@H](N)CC2)nc2ccnn2c1Nc1cccc(OCc2ccccc2)c1`, the IC50 was less than 100 µM.

For the compound `N[C@H]1CC[C@H](Nc2cc(Nc3ccc(F)c(Cl)c3)n3ncc(Br)c3n2)CC1`, the IC50 was less than 100 µM.

Consider `Cc1csc(-c2ccc(Nc3c(C)c(N[C@H]4CC[C@H](N)CC4)nc4ccnn34)cc2)c1`, for which the IC50 was less than 100 µM.

`CCOc1ccc(Nc2c(C)c(N[C@H]3CC[C@H](N)CC3)nc3c(C(=O)O)cnn23)cc1` showed an IC50 of less than 100 µM.

Regarding `COc1c(NC2CCCNC2)nc2ccnn2c1Nc1ccc(F)c(Cl)c1` (stereo not given), the IC50 was less than 100 µM.

As to `Cc1c(N[C@H]2CC[C@H](N)CC2)nc2ccnn2c1Nc1ccc(C(=O)NC2CCCC2)cc1`, the IC50 was less than 100 µM.

Turning to `Cc1c(N[C@H]2CC[C@H](N)CC2)nc2ccnn2c1Nc1ccc(OCc2ccc(Cl)cc2)cc1`, the IC50 is less than 100 µM.

`Cc1c(N[C@H]2CC[C@H](N)CC2)nc2ccnn2c1Nc1ccc(OCC2CCCC2)cc1`: the IC50 was less than 100 µM.

On to `CCc1c(NC2CCCNC2)nc2ccnn2c1Nc1ccc(Oc2ccc(C)cc2)cc1` (stereo not given), for which the IC50 is less than 100 µM.

The record behind these values is the Kinase Knowledgebase extract (Sharma et al. 2016).
